The text below walks through data of patent US10570179B2, “Substituted urea depsipeptide analogs as activators of the CLPP endopeptidase” (priority 2016, dated 2020).

In general, EC50 refers to the concentration that produces a half-maximal response. Broadly, the kinetic solubility is the concentration staying in solution when a stock, usually in DMSO, is diluted into the medium.

One series concerns S. aureus ΔClpP. The experiment in a line: Minimal inhibitory concentration, microbroth dilution. The format is cell-based, Staphylococcus aureus. Conditions: MIC; ClpP inactivated. Summed up: (§1)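 Susceptibility testing used the CLSI dilution standard, with bacteria at ~10^5 cfu/mL exposed to a two-fold compound series beginning at 200 μM final. The endpoint is the lowest concentration showing no growth after overnight incubation (37 °C, aerobic).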
A general note: Broth dilution looks for growth in wells or tubes with falling amounts of substance.

Another series concerns the target T1, S. aureus ClpP (Sa-ClpP) (Staphylococcus aureus, UniProt Q2G036).
T1 construct: made in house; host or cells: E. coli BL21 (DE3)
The experiment in a line: Casein-BODIPY digestion assay (ClpP activation). The format is biochemical.

A further series concerns S. pyogenes. The experiment in a line: Minimal inhibitory concentration, microbroth dilution. In kind it is cell-based. Conditions: Streptococcus pyogenes; MIC; read-out: Minimal Inhibitory Concentrations (μM) S. pyogenes. A digest of the protocol:
as §1

A further series can be described thus: Solubility determination. The format is physicochemical. A digest of the protocol:
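DMSO stock spiked into DPBS at 100 µM final, in triplicate, shaken 10 min, then centrifuged 20 min at 22 °C. Supernatant quantified by UPLC-UV and single-ion-recording MS against DMSO calibration standards (0.098–100 µM), using 1/x²-weighted linear regression.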

The structures appear in SMILES notation. Values after ≈ are worked out from the molar mass of the structure shown. Numbered stars: 1 amine (or outer) side, 2 acyl side, 3 side chain; on linkers, the order of the positions; unused ones are H or OH. Bridge positions count the residues as written; N and C are the ends. Square brackets hold non-standard residues; d marks the D form. Peptide text beside a SMILES is read from it. * marks the point of attachment. Piperazine(2S-CO,4-Me) = CN1CCN[C@H](C(=O)O)C1; Phe(3-OMe) = COc1cccc(C[C@H](N)C(=O)O)c1; NH(4-Cl-2-F-phenyl) = Fc1cc(Cl)ccc1N*; Pro(4R-Me) = C[C@H]1CN[C@H](C(=O)O)C1; CO = O=C([*:1])[*:2] A value given as a limit tells only on which side of the number the result lay.

T1 sequence (Q2G036 whole entry): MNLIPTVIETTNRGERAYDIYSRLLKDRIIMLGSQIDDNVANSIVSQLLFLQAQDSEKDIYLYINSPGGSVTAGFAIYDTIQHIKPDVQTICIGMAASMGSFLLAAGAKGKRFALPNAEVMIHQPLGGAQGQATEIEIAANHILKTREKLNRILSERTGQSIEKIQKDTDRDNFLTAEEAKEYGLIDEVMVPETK

As to `COc1cccc(C[C@H](NC(=O)Nc2ccc(Cl)cc2F)C(=O)N[C@H]2COC(=O)[C@@H]3C[C@@H](C)CN3C(=O)[C@H](C)NC(=O)[C@@H]3CN(C)CCN3C(=O)[C@@H]3CCCN3C2=O)c1` [Compound 19, (S)-2-(3-(4-CHLORO-2-FLUOROPHENYL)UREIDO)-3-(3-METHOXYPHENYL)-N-((6AS,12S,15AS,17R,21S,23AS)-2,17,21-TRIMETHYL-6,11,15,20,23-PENTAOXOOCTADECAHYDRO-2H,6H,11H,15H-PYRAZINO[2,1-I]DIPYRROLO[2,1-C:2′,1′-L][1]OXA[4,7,10,13]TETRAAZACYCLOHEXADECIN-12-YL)PROPANAMIDE] ({NH(4-Cl-2-F-phenyl)-CO}-[Phe(3-OMe)]SP[Piperazine(2S-CO,4-Me)]A[Pro(4R-Me)]; ester 2-C), the “Minimal Inhibitory Concentrations (μM) S. aureus ΔClpP” value in the series on S. aureus ΔClpP is more than 20 µM. A half-maximal effect on S. aureus ClpP (Sa-ClpP) (EC50) was put at 2520 ± 200 nM. The MIC with S. pyogenes was 10 µM (≈ 8.41 µg/mL). Moreover, in the series “Solubility determination”, the “μsol (μM)” value is 51.5 ± 1.1 µM. The solubility (kinetic) at 10 min in “Solubility determination” (22 °C, aqueous buffer, kinetic from dmso stock) was found to be 55.9 ± 2.9 µM (≈ 47 µg/mL).
